In ChEMBL document CHEMBL5727760, “Pyrrolidine derivatives” (2020):
pIC50: −log10 of the molar value.

These compounds were tested against Cathepsin S (Homo sapiens, UniProt P25774) (assay: Enzyme Inhibition Assay: Enzyme activity is measured by observing the increase in fluorescence intensity caused by cleavage of a peptide substrate containing a fluorophore whose emission is quenched in the intact peptide.Assay buffer: 100 mM potassium phosphate pH 6.5, EDTA-Na 5 mM, Triton X-100 0.001%, DTT 5 mM.Enzymes (all at 1 nM): human and mouse Cathepsin S, Cat K, Cat B, Cat L.Substrate (20 μM): Z-Val-Val-Arg-AMC, except for Cat K which uses Z-Leu-Arg-AMC (both from Bachem).Z=Benzyloxycarbonyl.AMC=7-Amino-4-Methyl-Coumarin.DTT=dithiothreitol.Final volume: 100 μL.Excitation 360 nm, Emission 465 nm.Enzyme is added to the substance dilutions in 96-well microtitre plates and the reaction is started with substrate.).
Sequence of Cathepsin S (P25774 whole entry): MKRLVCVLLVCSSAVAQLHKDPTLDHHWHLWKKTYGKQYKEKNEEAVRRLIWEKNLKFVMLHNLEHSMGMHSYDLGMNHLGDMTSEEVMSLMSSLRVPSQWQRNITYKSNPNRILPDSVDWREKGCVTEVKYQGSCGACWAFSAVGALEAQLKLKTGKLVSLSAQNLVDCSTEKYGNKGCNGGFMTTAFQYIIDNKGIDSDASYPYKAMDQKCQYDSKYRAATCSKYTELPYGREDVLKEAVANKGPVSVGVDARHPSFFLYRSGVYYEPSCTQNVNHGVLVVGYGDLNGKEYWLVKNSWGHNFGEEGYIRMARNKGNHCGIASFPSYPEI
With `N#CC1(NC(=O)[C@@H]2C[C@@H](S(=O)(=O)c3ccc(-n4cnc(Cl)n4)cc3C(F)(F)F)CN2C(=O)C2(C(F)(F)F)CC2)CC1` the pIC50 was 9.20. For `N#CC1(NC(=O)[C@@H]2C[C@@H](S(=O)(=O)c3ccc(-n4cc(C(F)(F)F)cn4)cc3C(F)(F)F)CN2C(=O)C2(C(F)(F)F)CC2)CC1`, the pIC50 was 9.12. Work on `Cc1nnnn1-c1ccc(S(=O)(=O)[C@@H]2C[C@@H](C(=O)NC3(C#N)CC3)N(C(=O)C3(C(F)(F)F)CC3)C2)c(C(F)(F)F)c1` yielded a pIC50 of 9.46. In the case of `N#CC1(NC(=O)[C@@H]2C[C@@H](S(=O)(=O)c3ccc(-n4cnnn4)cc3C(F)(F)F)CN2C(=O)C2(C(F)(F)F)CC2)CC1`, the pIC50 was 9.23. In the case of `N#CC1(NC(=O)[C@@H]2C[C@@H](S(=O)(=O)c3ccc(-n4cncn4)cc3C(F)(F)F)CN2C(=O)C2(C(F)(F)F)CC2)CC1`, the pIC50 was 9.41. `N#CC1(NC(=O)[C@@H]2C[C@@H](S(=O)(=O)c3ccc(-n4nccn4)cc3C(F)(F)F)CN2C(=O)C2(C(F)(F)F)CC2)CC1` was tested, and the pIC50 was 9.30.
